Experimental data from US20190388389A1, “METHODS AND COMPOSITIONS OF CARNOSOL FOR INHIBITING UVB-INDUCED SKIN DAMAGE” (Ohio University, priority 2017, published 2019).

How the values were obtained:
normal skin cells [1] = experiment: Cell proliferation with carnosol or its decomposed molecules (FIG. 11); format: cell-based
Description: FIG. 11. The effect of carnosol or its decomposed molecules on cell proliferation was determined.
(§1) UVB was generated from a Bench XX-Series UV Lamp (UVP Inc.) equipped with two 15-watt UVB tubes (UVP Inc.). The intensity of UVB was calibrated by a UVP model UVX digital radiometer (UVP Inc.) after the lamps warmed up for 5 min. For irradiating cells, the dose rate for 8 mJ/cm^2 or 50 mJ/cm^2 of UVB radiation was 0.8 or 3.8 mW/s respectively. Medium was removed before exposing the cells to UVB. After UVB radiation, fresh medium was added to the culture plates with or without drugs, and the cells were continue incubating at 37° C. with 5% CO2 until further analysis. Carnosol was disovled in DMSO and was irradiated with 50 mJ/cm^2 of UVB radiation at a dose rate of 3.8 mW/s before subjecting to cells or structure analysis using Mass Spectrum.

normal skin cells [2] = experiment: Cell viability with carnosol or its UVB-decomposed molecules (FIG. 12); format: cell-based; details: within 12 h after treatment
Description: FIG. 12. The effect of carnosol or its decomposed molecules on cell viability. Cell viability assay of carnosol and its UVB-decomposed molecules on normal skin cells in a time dependent manner (6, 12, and 24 h after UVB radiation).
as §1

[3] = test system: intracellular ROS level in HaCaT cells; experiment: ROS measurement with CM-H2DCFDA after UVB radiation; format: cell-based, Human; details: for ROS level post-UVB: UVB 50 mJ/cm^2, 6 h, UVB alone 2.1-fold
Description: FIG. 2: Dose dependent effect of carnosol on UVB-induced intracellular ROS level. HaCaT cells were seeded in 96 well plate and incubated with CM-H2DCFDA dye one hour prior to UVB exposure, with or without carnosol treatment. ROS was measured at 6 h post UVB radiation with indicated concentration of carnosol treatment using ex490/em520 nm. The data represents three to five sets of independent experiments. *p<0.05 versus corresponded control group, **p<0.05 versus UV alone.
FIGS. 3A-3B: Time dependent effect of carnosol on UVB-induced intracellular ROS level. HaCaT cells were seeded in 96 well plate and CM-H2DCFDA dye was used to measure intracellular ROS level. Carnosol (20 μM) was added to cells 1 h prior to UVB exposure, and ROS level was measured at 20 min intervals post UVB. (FIG. 3A) Intracellular ROS level at 20 min intervals with or without carnosol treatment. (FIG. 3B) Statistical analysis of intracellular ROS level at 240, 480, 720 min post UVB radiation with or without carnosol (20 μM) treatment. *p<0.05 versus corresponded control group, **p<0.05 versus corresponded UV group.
as §1
Carnosol (Cayman) (FIG. 1) was added to cells at indicated concentration at 1 h before exposing the cells to UVB radiation. After radiation, cells were continuously incubated with or without carnosol in the medium until further analysis.
CM-H2DCFDA (Invitrogen) was used to measure the total ROS level in cells. CM-H2DCFDA was dissolved in DMSO to a stock solution of 500 μM and diluted in PBS to final concentration of 5 μM. CM-H2DCFDA was added into cells 1 h prior to UVB exposure and the reading of fluorescence dye was recorded every 20 minutes using luminometer (Molecular devices Spectra Max M2).

[4] = test system: A431 human squamous carcinoma cell; experiment: MTT cell viability assay, A431; format: cell-based; details: A431, carnosol plus 50 mJ/cm^2 UVB, 24 h, vs no treatment control; UVB alone about 50%
Description: FIGS. 9A-9B. Carnosol decreases A431 cancer cell progression. Squamous carcinoma cell A431 was used to determine the effect of carnosol on cancer cell progression. (FIG. 9A) Effect of carnosol on cell viability. Cells were treated upon 50 mJ/cm^2 UVB radiation with or without carnosol treatment. After 24 h, cells were collect and MTT assay was performed to determine the cell viability. *p<0.05 versus control group, **p<0.05 versus UV group at indicated time point. (FIG. 9B) Effect of carnosol on clonogenic assay. Cells were exposed to 8 mJ/cm^2 UVB exposure in the presence or absence of carnosol. 5×10^3 cells were plated into 6 well plate immediately after treatment and incubated for […]. The error bars present the standard deviation of three sets of independent experiments. *p<0.05 versus control group, **p<0.05 versus UV group at indicated time point.
Since carnosol protects cell death upon UVB radiation, how carnosol affects skin cancer cells was also determined. A431 human squamous carcinoma cell was used as it is one of the cancer types that keratinocyte would develop. Cell viability was determined by MTT assay.

HaCaT cells = experiment: Comet assay for HaCaT exposed to UVB radiation; format: cell-based, Human; details: semi-quantitative by Image J
From the text: FIG. 5D: Comet assay for HaCaT exposed to UVB radiation. After cell treatment, cells were trypsinized and collect for comet assay. The tail intensity was semi-quantitatively analyzed using Image J.
Both human keratinocyte (HaCaT) and mouse embryonic fibroblast (MEF) cells were used, and the protein levels of γH2AX and phosphor-Chk were used as DNA damage marker. […] Similar results are observed in MEF cells as both the phosphorylation level of H2AX and Chk reduced at early stage post UVB radiation (FIG. 5B). […] To further show the protection effect of carnosol on UVB-irradiated cell, a comet assay was performed. […] Thus, carnosol ast least partially protect the DNA damage from UVB radiation.

With `CC(C)c1cc2c(c(O)c1O)[C@@]13CCCC(C)(C)[C@@H]1C[C@@H]2OC3=O` [carnosol] the “protection of the UVB-irradiated cells (proliferation)” value (normal skin cells [1]) was “partial protection”, the “cell proliferation / cell growth in normal skin cells” value (normal skin cells [1]; without UVB protection context) was “some effect in inhibiting cell proliferation” and the “protection of cell damage from UVB radiation (viability)” value (normal skin cells [2]) was “can protect cell damage from UVB radiation in short term”. For the same molecule, the “ROS level post-UVB” value ([3]; 0.1 μM carnosol) was “not statistically significantly changed”, the “ROS level post-UVB” value ([3]; 0.5 μM carnosol) was “not statistically significantly changed” and the “ROS level post-UVB” value ([3]; 10 μM carnosol) was “about 1.5 fold”. The “ROS level in the irradiated cells” value ([3]; 20 μM carnosol, 20 min to 10 h post-UVB) was “continuously reduces”, the “decrease of ROS level” value ([3]; 20 μM carnosol, 240 min after UVB) was about 30% and the “decrease of ROS level” value ([3]; 20 μM carnosol, 480 min after UVB) was about 30%. For the same molecule, the “decrease of ROS level” value ([3]; 20 μM carnosol, 720 min after UVB) was about 30%, the “ROS level post-UVB” value ([3]; 20 μM carnosol) was about 1.3 fold and the “decrease of ROS level” value ([3]; 20 μM carnosol, immediately after UVB treatment) was 20%. The “ROS level in untreated cells” value ([3]; 20 μM carnosol, no UVB, 20 min intervals up to 12 h) was “did not statistically significant affect”, the “ROS level post-UVB” value ([3]; 30 μM carnosol) was about 1.3 fold and the ROS level ([3]; carnosol alone 0.1 μM to 30 μM, no UVB (Control), 6 h) was “no statistic significant effect”. The cell viability [4] was 30% and the “comet tail intensity upon UVB radiation” value (HaCaT cells) was “almost by half”.
